According to PMC2810227, “3-O-Methylfunicone, a Selective Inhibitor of Mammalian Y-Family DNA Polymerases from an Australian Sea Salt Fungal Strain” (Marine Drugs, 2009):

Key:
Format in all cases: biochemical
Conditions in all cases: 100 μM
[1] = molecular target: T1, human pol δ (Homo sapiens, UniProt P28340); experiment: DNA polymerase assay, pol δ
T1 construct: purified by nuclear fractionation of human peripheral blood cancer cells (Molt-4); endogenous in cells; host or cells: Molt-4
From the text: (§1) Pol α was purified from calf thymus by immuno-affinity column chromatography, as described by Tamai et al.. Recombinant rat pol β was purified from E. coli JMpβ5, as described by Date et al.. The human pol γ catalytic gene was cloned into pFastBac. Histidine-tagged enzyme was expressed using the BAC-TO-BAC HT Baculovirus Expression System according to the supplier’s manual (Life Technologies, MD, USA) and purified using ProBoundresin (Invitrogen Japan, Tokyo, Japan). Human pols δ and ɛ were purified by nuclear fractionation of human peripheral blood cancer cells (Molt-4) using the second subunit of pols δ and ɛ-conjugated affinity column chromatography, respectively. A truncated form of human pol η (residues 1–511) tagged with His6 at its C-terminal was expressed in E. coli cells and purified as described by Kusumoto et al.. A recombinant mouse pol ι tagged with His6 at its C-terminal was expressed and purified by Ni-NTA column chromatography as described elsewhere (Masutani et al., in preparation). […]
(§2) The compounds were dissolved in distilled dimethyl sulfoxide (DMSO) at various concentrations and sonicated for 30 sec. […] Activity without the inhibitor was considered 100%, and the remaining activity at each concentration of the inhibitor was determined relative to this value. […]

[2] = molecular target: mouse inosine 5′-monophosphate (IMP) dehydrogenase (type II) (Mus musculus, UniProt P24547); experiment: IMP dehydrogenase assay
Chain of mouse inosine 5′-monophosphate (IMP) dehydrogenase (type II) (P24547 whole entry): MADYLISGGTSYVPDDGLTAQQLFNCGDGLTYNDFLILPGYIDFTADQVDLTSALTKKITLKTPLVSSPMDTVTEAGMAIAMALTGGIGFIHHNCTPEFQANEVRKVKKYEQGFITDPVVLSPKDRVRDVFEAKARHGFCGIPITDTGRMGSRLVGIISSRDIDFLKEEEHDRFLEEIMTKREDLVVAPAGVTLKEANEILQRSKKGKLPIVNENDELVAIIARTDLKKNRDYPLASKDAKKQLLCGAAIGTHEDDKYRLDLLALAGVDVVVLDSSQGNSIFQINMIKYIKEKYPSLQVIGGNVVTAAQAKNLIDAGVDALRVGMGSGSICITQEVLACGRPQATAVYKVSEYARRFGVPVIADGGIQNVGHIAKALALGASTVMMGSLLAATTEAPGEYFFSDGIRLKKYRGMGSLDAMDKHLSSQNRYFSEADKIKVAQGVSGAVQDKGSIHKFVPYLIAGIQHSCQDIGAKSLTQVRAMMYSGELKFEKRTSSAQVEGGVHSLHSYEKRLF
Method: (§3) The activities of calf primase of pol α, human telomerase, T7 RNA polymerase, mouse IMP dehydrogenase, human DNA topoisomerases I and II, T4 polynucleotide kinase and bovine DNase I were measured in standard assays according to the manufacturer’s specifications, as described by Tamiya-Koizumi et al., Oda et al., Nakayama et al., Mizushina et al., Ishimaru et al., Soltis et al. and Lu et al., respectively.

[3] = molecular target: T2, bovine DNase I (Bos taurus, UniProt P00639); experiment: DNase I assay
T2 construct: Calf thymus TdT and bovine pancreas DNase I were obtained from Stratagene Cloning Systems; purchased Stratagene Cloning Systems (La Jolla, CA, USA); host or cells: bovine pancreas (tissue)
T2 sequence (P00639 23-282): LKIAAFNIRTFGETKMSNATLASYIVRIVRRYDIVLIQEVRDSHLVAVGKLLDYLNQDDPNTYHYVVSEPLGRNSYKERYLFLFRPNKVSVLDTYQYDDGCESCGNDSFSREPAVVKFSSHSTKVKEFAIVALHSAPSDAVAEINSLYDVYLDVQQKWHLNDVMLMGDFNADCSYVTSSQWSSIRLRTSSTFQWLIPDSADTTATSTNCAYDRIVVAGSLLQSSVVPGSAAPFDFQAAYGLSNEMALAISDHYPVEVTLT
From the text: as §1, with “al..” for “al.. A recombinant mouse pol ι tagged with His6 at its C-terminal was expressed and purified by Ni-NTA column chromatography as described elsewhere (Masutani et al., in preparation).”
as §3

[4] = molecular target: T3, human pol ɛ (Homo sapiens, UniProt Q07864); experiment: DNA polymerase assay, pol ɛ
T3 construct: purified by nuclear fractionation of human peripheral blood cancer cells (Molt-4); endogenous in cells; host or cells: Molt-4
T3 sequence (Q07864 whole entry): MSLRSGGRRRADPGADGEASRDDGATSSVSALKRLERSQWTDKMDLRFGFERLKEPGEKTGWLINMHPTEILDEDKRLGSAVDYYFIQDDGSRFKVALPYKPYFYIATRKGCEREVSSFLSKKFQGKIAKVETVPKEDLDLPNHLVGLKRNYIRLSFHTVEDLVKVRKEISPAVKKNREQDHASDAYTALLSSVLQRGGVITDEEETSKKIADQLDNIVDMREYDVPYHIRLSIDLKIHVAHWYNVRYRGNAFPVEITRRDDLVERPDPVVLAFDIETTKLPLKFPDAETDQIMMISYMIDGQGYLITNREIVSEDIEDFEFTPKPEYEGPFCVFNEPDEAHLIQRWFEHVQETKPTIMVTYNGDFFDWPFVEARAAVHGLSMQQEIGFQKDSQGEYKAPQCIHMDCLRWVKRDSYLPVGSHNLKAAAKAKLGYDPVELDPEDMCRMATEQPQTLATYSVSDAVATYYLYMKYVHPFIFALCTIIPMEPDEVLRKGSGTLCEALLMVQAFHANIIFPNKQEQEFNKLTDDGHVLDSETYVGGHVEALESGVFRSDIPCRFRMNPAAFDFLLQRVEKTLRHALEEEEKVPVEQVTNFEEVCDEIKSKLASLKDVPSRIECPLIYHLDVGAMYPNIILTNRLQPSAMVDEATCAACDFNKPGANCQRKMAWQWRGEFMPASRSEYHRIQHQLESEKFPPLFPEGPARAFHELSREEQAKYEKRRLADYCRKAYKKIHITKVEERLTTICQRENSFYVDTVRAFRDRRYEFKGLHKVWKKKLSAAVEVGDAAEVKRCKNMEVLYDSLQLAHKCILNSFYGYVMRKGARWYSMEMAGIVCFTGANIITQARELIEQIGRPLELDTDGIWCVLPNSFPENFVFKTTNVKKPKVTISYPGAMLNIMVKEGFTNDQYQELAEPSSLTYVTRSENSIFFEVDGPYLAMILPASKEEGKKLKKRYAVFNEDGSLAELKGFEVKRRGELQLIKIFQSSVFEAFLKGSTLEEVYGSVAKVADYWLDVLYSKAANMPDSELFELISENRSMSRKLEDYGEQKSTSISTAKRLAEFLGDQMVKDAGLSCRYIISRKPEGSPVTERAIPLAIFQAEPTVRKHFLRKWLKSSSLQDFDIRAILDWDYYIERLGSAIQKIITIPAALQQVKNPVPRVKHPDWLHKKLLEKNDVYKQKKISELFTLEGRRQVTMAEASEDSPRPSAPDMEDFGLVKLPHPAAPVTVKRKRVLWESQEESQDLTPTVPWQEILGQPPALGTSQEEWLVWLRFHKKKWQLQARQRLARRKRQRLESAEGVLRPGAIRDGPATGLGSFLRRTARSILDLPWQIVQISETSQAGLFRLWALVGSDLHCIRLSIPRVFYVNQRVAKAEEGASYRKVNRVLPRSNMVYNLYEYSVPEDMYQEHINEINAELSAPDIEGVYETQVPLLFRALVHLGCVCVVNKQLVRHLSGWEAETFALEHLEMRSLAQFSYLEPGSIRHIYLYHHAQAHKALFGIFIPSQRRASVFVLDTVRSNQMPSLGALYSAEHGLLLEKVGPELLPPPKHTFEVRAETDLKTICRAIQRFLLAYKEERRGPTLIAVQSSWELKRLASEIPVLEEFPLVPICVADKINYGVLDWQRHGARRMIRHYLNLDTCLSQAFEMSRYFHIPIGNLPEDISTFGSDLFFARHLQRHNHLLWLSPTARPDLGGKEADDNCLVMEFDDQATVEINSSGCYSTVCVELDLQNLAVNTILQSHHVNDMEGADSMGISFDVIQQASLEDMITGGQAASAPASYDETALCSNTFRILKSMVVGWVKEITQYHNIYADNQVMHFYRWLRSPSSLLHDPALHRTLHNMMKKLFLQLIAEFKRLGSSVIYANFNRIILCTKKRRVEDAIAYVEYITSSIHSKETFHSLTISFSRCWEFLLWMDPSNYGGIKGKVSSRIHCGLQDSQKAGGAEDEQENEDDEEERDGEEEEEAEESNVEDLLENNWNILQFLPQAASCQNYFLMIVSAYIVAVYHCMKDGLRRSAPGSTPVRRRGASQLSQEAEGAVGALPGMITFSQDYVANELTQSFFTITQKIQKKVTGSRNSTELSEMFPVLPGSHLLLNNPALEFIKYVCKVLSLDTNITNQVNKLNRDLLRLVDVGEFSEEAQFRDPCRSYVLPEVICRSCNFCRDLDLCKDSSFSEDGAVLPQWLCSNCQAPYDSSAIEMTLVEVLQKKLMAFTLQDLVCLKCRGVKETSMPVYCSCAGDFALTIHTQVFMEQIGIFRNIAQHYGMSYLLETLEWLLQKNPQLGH
From the text: as §1, §2

T1 sequence (P28340 whole entry): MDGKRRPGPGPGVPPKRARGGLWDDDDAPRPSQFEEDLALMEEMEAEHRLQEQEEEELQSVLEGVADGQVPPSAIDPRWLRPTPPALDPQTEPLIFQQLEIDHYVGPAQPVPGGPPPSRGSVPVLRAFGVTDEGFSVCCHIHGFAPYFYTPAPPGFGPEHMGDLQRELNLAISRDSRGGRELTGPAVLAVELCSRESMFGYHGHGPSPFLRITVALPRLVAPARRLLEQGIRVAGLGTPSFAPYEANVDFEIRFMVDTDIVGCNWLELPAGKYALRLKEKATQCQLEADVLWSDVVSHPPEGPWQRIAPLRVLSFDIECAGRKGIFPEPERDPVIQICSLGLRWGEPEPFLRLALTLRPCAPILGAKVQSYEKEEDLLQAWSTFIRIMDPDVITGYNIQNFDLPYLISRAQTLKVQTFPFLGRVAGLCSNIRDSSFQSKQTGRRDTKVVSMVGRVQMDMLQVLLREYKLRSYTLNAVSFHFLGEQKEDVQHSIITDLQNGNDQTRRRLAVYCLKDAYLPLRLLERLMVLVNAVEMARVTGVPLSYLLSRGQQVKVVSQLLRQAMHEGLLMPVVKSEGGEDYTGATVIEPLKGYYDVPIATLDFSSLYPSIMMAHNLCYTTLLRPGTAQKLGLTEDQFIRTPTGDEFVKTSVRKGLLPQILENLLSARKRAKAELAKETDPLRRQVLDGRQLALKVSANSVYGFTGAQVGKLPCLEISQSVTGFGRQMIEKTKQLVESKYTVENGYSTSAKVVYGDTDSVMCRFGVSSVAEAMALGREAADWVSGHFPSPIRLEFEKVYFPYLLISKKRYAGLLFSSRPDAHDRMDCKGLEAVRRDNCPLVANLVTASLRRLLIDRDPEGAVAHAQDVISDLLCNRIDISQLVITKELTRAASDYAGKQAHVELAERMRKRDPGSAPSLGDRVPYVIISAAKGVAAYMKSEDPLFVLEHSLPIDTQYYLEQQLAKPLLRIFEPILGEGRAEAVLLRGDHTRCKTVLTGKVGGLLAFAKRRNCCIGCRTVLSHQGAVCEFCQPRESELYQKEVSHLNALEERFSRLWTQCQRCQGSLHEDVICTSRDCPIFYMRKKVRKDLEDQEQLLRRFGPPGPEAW

C/C=C/c1occ(C(=O)c2c(OC)cc(OC)cc2C(=O)OC)c(=O)c1OC [compound 1, 3-O-methylfunicone]
effect on pol δ activity [1]: hardly influenced
effect on mouse IMP dehydrogenase (type II) activity [2]: did not influence
effect on bovine DNase I activity [3]: did not influence
effect on pol ɛ activity [4]: hardly influenced
